The values that follow come from EP4671239A1, “ARYL SUBSTITUENT-CONTAINING DEGRADATION AGENT FOR CDK12/13, PREPARATION METHOD THEREFOR, AND PHARMACEUTICAL COMPOSITION AND USE THEREOF” (Shanghai Institute of Organic Chemistry, Chinese Academy of …, priority 2023, dated 2024).

The subject of one series is Cyclin K. Kind of series: Degradation of partner protein Cyclin K in MDA-MB-231 cells (Western Blot). The format is cell-based. As to conditions: for time dependence of degradation of Cyclin K: WB (FIG. 2); for degradation of Cyclin K protein: after 15 hours. As for the experimental part:
(§1) Experimental methods: The cell line MDA-MB-231 was purchased from the American Type Culture Collection (ATCC). Conventional Western Blot was used for detection, as follows: MDA-MB-231 cells were seeded at a density of 2 x 10^5/mL in a 12-well plate, with 1 mL per well, and cultured overnight in an incubator in an adherent manner. Then, a certain concentration of compounds was added to act for 15 h. The cells were lysed with a lysis buffer, and protein samples were collected. An appropriate amount of the sample was taken for SDS-PAGE electrophoresis. After electrophoresis, the protein was transferred to a polyvinylidene fluoride (PVDF) membrane using a wet electro-transfer system. The PVDF membrane after electro-transfer was cut into several required strips, which were then placed in a blocking solution (5% skim milk powder diluted in TBS containing 0.1% Tween 20) and blocked at room temperature for 1.5 h. A primary antibody solution was prepared by diluting a primary antibody against the corresponding target protein in TBS containing 0.1% Tween 20 according to the dilution requirements of different antibodies, such as 1:1000 (CST), 1:3000 (Proteintech, Bethyl), and 1:200 (Santacruz). The blocked membrane was placed in the corresponding primary antibody solution and incubated at 4°C for 12-14 h. Then, the cells were washed three times with TBS containing 0.1% Tween 20, each time for 5 min. After washing, the membrane was placed in a secondary antibody solution (horseradish peroxidase-labeled goat anti-rabbit IgG, diluted at 1:2000 in TBS containing 0.1% Tween 20) and reacted at room temperature for 2 h. After washing the membrane three times as above, the membrane was developed with StarSignal plus reagent (GenStar®) and Omni-ECL reagent (Yazyme®), and photographed with Amersham Imager 800 system.
Background: Immunoblotting shows a protein as a band on a membrane.

Series [1] has as its system CDK12 and CDK13 proteins. Kind of series: Degradation activity on CDK12/13 in MDA-MB-231 cells (Western Blot). The series is classed as cell-based. As to conditions: WB (FIG. 2A).
The subject of series [2] is CDK12 and CDK13 proteins. The series is described as above. The series is classed as cell-based. As to conditions: for degradation of CDK12 and CDK13 protein levels in cells: 0.1µM or 0.3µM, 15 h, WB (FIG. 1); for degradation of CDK12 and CDK13 proteins: 1 µM, 15 hours. As to the method:
as §1

Series [3] concerns triple negative breast cancer cells MDA-MB-231. Kind of series: Proliferation-inhibiting activity on MDA-MB-231 cells (Cell Counting Kit-8). The series is classed as cell-based. Conditions: Homo sapiens, 120 h; MDA-MB-231 cell line, 5 days, cck-8 (FIG. 3). As for the experimental part:
The cell proliferation-inhibiting activity of the compounds was determined using Cell Counting Kit-8 Cell Viability Assay (Selleck.cn). The cells were seeded into a 384-well plate (CORNING® PS 3701) containing the corresponding culture medium and incubated in an incubator at 37°C with 5% CO2. After overnight incubation, a high-concentration stock solution of each compound to be tested was prepared; the compound was added to the 384-well plate according to a concentration gradient using an Echo® 650 Liquid Handler (LABCYTE®). After administration, the cell plate was placed in an incubator at 37°C with 5% CO2 and incubated for 5 days. Then, 5 µL of cck-8 reagent was added to each well of the 384-well plate using MULTIDROP® (Thermo Scientific™), and the plate was returned to the incubator for incubation for 1.5-2 h. After incubation, the plate was removed and centrifuged to remove bubbles. The absorbance of each well at 450 nm and 650 nm was obtained using EnVision® (PerkinElmer®). GraphPad Prism software (GraphPad Software Inc.) was used to process and analyze the data.

A short description of series [4]: Pharmacokinetics and bioavailability test in rats (Example 57). The series is classed as in vivo. As to conditions: SD rats; for AUC(0-inf) / Tmax / MRT last / MRT inf: rat, plasma; for MRT last: read-out: MRT(0-t); for MRT inf: read-out: MRT(0-∞). As to the method:
(§2) Pharmacokinetics and bioavailability tests in rats. SD rats were given a single oral (10 mg/kg), intravenous (2.5 mg/kg) and intraperitoneal (10 mg/kg) dose, followed by animal blood sample collection at appropriate time points. Heparin was added for anticoagulation, and the samples were centrifuged at 8000 rpm for 6 min. The supernatant was collected and stored at -20°C for HPLC-MS analysis. The blood samples underwent protein precipitation with acetonitrile at 12 000 rpm * 10 min, and the supernatant was used for HPCL-MS analysis. The data underwent parameter fitting with DAS2.0, to obtain compartmental model and non-compartmental model parameters, respectively. The oral bioavailability of the compounds was calculated based on the area under the plasma concentration-time curve (AUC) data. […] Table 1. Pharmacokinetic experimental results of compound zlc-4-93

A short description of series [5]: Pharmacokinetics and bioavailability test in rats (Example 60). The format is in vivo. Conditions: SD rats. As for the experimental part: as §2, with “2.” for “1.”, “compounds YJZ9069 and YJZ1102” for “compound zlc-4-93”
Series [6] relates to CDK12 and CDK13 proteins. Kind of series: Degradation activity on CDK12/13 in 22RV1 cells (Western Blot). The format is cell-based. Conditions: 22RV1 cells. As to the method: Experimental methods: The cell line, 22RV1 cell line was purchased from the American Type Culture Collection (ATCC). Conventional Western Blot was used for detection as follows: 22RV1 cells were seeded in a certain number in a 12-well plate, and cultured overnight in an incubator in an adherent manner. […] The cells were lysed with a lysis buffer, and samples were collected. Then, an appropriate amount of the samples was taken for SDS-PAGE electrophoresis. After electrophoresis, the proteins were transferred to nitrocellulose membranes using a semi-dry electro-transfer system. The nitrocellulose membrane was placed in a blocking solution (5% skim milk powder diluted in TBS containing 0.1% Tween 20) and blocked at room temperature for 2 h. The membranes were then placed in a primary antibody solution (1: 1000 diluted in TBS containing 0.1% Tween 20), respectively, and incubated at 4°C overnight. The cells were washed three times with TBS containing 0.1% Tween 20, each time for 15 min. The membrane was placed in a secondary antibody solution (horseradish peroxidase-labeled goat anti-rabbit IgG, diluted at 1:1000 in TBS containing 0.1% Tween 20) and reacted at room temperature for 1 h. After washing the membrane three times as above, the membrane was developed with ECL plus reagent and photographed using Amersham Imager 600 system.

In series [7] the test system is phosphorylation of serine at position 2 (phoSer2) of the C-terminal domain of RNA polymeraseII (RNA Pol II). The experiment in a line: Phosphorylation of Ser2 of the RNA Pol II C-terminal domain in 22RV1 cells (Western Blot). The series is classed as cell-based. As to conditions: different concentrations (FIG. 4B). As for the experimental part: Experimental methods: The cell line, 22RV1 cell line was purchased from the American Type Culture Collection (ATCC). Conventional Western Blot was used for detection as follows: 22RV1 cells were seeded in a certain number in a 12-well plate, and cultured overnight in an incubator in an adherent manner. Then, a certain concentration of compounds was added to act for 6 hours. The cells were lysed with a lysis buffer, and samples were collected. Then, an appropriate amount of the samples was taken for SDS-PAGE electrophoresis. After electrophoresis, the proteins were transferred to nitrocellulose membranes using a semi-dry electro-transfer system. The nitrocellulose membrane was placed in a blocking solution (5% skim milk powder diluted in TBS containing 0.1% Tween 20) and blocked at room temperature for 2 h. The membranes were then placed in a primary antibody solution (1: 1000 diluted in TBS containing 0.1% Tween 20), respectively, and incubated at 4°C overnight. The cells were washed three times with TBS containing 0.1% Tween 20, each time for 15 min. The membrane was placed in a secondary antibody solution (horseradish peroxidase-labeled goat anti-rabbit IgG, diluted at 1:1000 in TBS containing 0.1% Tween 20) and reacted at room temperature for 1 h. […]

Broadly, the IC50 is the midpoint of a concentration-inhibition curve. Usually AUC(0-inf) stands for total exposure, with the tail of the curve extrapolated. What is called Tmax is the time from dosing to the highest level. The Cmax is the highest concentration seen after dosing. The clearance is the volume of plasma or blood freed of the substance per unit of time. As a reminder, the half-life is the time needed for the level to fall by half in the phase considered.

Where two headings read alike, the source gives them in different places.

On to `N#Cc1ccc(N[C@H]2CC[C@H](N(C(=O)NCc3ccccc3)c3ccc(N4CCC(N5CCN(c6ccc7c(c6)C(=O)N(C6CCC(=O)NC6=O)C7=O)CC5)CC4)cc3)CC2)nc1` (stereo partly drawn) [ZLC5-11], for which, in the series on Cyclin K, the “time dependence of degradation of Cyclin K” value is reported as “time-dependent degradation effect” and the “degradation of Cyclin K protein” value was “almost completely degraded”. Further, the “time dependence of degradation of CDK12 and CDK13 proteins” value with CDK12 and CDK13 proteins [1] is “time-dependent manner”. In the series with CDK12 and CDK13 proteins [2], the “degradation of CDK12 and CDK13 protein levels in cells” value (shortened to “degradation … in cells”) was “effectively degrade”; the “degradation of CDK12 and CDK13 proteins” value is reported as “almost completely degraded”.

The molecule `N#Cc1ccc(N[C@H]2CC[C@H](N(C(=O)NCc3ccccc3)c3ccc(N4CCN(CC5CN(c6ccc7c(c6)C(=O)N(C6CCC(=O)NC6=O)C7=O)C5)CC4)cc3)CC2)nc1` (stereo partly drawn) [ZLC5-6] showed an IC50 in series [3] of 498 nM. In addition, in the series on CDK12 and CDK13 proteins [2], the “degradation … in cells” value was “effectively degrade”.

With `N#Cc1ccc(N[C@H]2CC[C@H](N(C(=O)NCc3ccccc3)c3ccc(N4CCN(C[C@H]5CCN(c6ccc7c(c6)C(=O)N(C6CCC(=O)NC6=O)C7=O)C5)CC4)cc3)CC2)nc1` (stereo partly drawn) [ZLC6-1], the half-inhibitory concentration (IC50) in series [3] was determined as 289 nM. In the series with CDK12 and CDK13 proteins [2], the “degradation … in cells” value was “effectively degrade”.

As to `N#Cc1ccc(N[C@H]2CC[C@H](N(C(=O)NCc3ccccc3)c3ccc(N4CCN(C5CCN(c6cc7c(cc6F)C(=O)N(C6CCC(=O)NC6=O)C7=O)CC5)CC4)cc3)CC2)nc1` (stereo partly drawn) [ZLC4-91], in the series on Cyclin K, the “time dependence of degradation of Cyclin K” value was “time-dependent degradation effect” and the “degradation of Cyclin K protein” value is reported as “almost completely degraded”. Moreover, in the series with CDK12 and CDK13 proteins [1], the “time dependence of degradation of CDK12 and CDK13 proteins” value is recorded as “time-dependent manner”. This molecule also yielded an IC50 in series [3] of 622 nM. The F in series [4] (Oral 10 mg/kg, bioavailability calculated from AUC) was 46.80%. The oral pharmacokinetic properties entry in series [4] (summary in words of Table 1) was “excellent”. Moreover, in series [4] (iv, i.v. 2.5 mg/kg), the area under the curve AUC(0-inf) is 6880 ng·h/mL, the Tmax was 0.08 h, the MRT last is 2.2 h and the MRT inf was 2.32 h. In series [4] (Oral 10 mg/kg), the total exposure AUC(0-inf) was 12800 ng·h/mL, the Tmax was determined as 4.67 h, the MRT last is 6.09 h and the MRT inf was determined as 6.21 h. In the series with CDK12 and CDK13 proteins [2], the “degradation … in cells” value is on record as “effectively degrade”; the “degradation of CDK12 and CDK13 proteins” value was “almost completely degraded”.

`O=C1CCC(N2C(=O)c3cccc(OCC(=O)N4CCN(c5ccc(N(C(=O)NCc6ccccc6)[C@H]6CC[C@H](Nc7ncc8ccccc8n7)CC6)cc5)CC4)c3C2=O)C(=O)N1` (stereo partly drawn) [YJZ9069]: in series [5] (PO 10 mg/kg, bioavailability calculated from AUC), the F is recorded as 5.04%. Also, in series [5] (rat, in vivo, IV 2.5 mg/kg), the Cmax was 3510 ng/mL, the Tmax is 0.08 h, the clearance is 14.1 mL/min/kg and the half-life is 4.39 h. For the same molecule, in series [5] (rat, in vivo, PO 10 mg/kg), the Cmax was determined as 121 ng/mL and the Tmax came out at 4 h. Also, in the series with CDK12 and CDK13 proteins [6] (100 nM, 6 h (FIG. 5)), the “degradation of CDK12 and CDK13 proteins” value is reported as “almost completely degrade”. Besides, the “degradation of CDK12 and CDK13 proteins” value in the series on CDK12 and CDK13 proteins [6] (0.5 µM, 15 hours) is “almost completely degraded”. For the same molecule, in the series with CDK12 and CDK13 proteins [6] (500 nM, 6 hours, WB (FIG. 4)), the “degradation … in cells” value was “effectively degrade”. Moreover, the “dose dependence of degradation of CDK12 and CDK13 proteins” value in the series with CDK12 and CDK13 proteins [6] (different concentrations, 6 h (FIG. 4B, FIG. 5)) was “dose-dependent manner”. In addition, the “phosphorylation of serine at position 2 (phoSer2) of RNA Pol II CTD” value in series [7] was “inhibited in a dose-dependent manner”.

With `N#Cc1ccc(N[C@H]2CC[C@H](N(C(=O)NCc3ccccc3)c3ccc(N4CCN(C(=O)C5CCN(c6ccc7c(c6)C(=O)N(C6CCC(=O)NC6=O)C7=O)CC5)CC4)cc3)CC2)nc1` (stereo partly drawn) [ZLC5-31], half-maximal inhibition in series [3] (IC50) required 389 nM. Further, the “degradation … in cells” value in the series with CDK12 and CDK13 proteins [2] is given as “effectively degrade”.
